# Assay results taken from patent US20090326053A1, “DIAGNOSTIC USES OF FOLLISTATIN-LIKE 1” (TRUSTEES OF BOSTON UNIVERSITY, priority 2008, published 2009).
# Assays:
# [1] = tested on: neonatal rat ventricular myocytes (NRVMs); test: Nucleosome fragmentation ELISA in NRVMs; format: cell-based; conditions: inhibitor 10 μmol/L, 3 hours prior to H/R
# Method: (§1) Myocyte cultures. Primary cultures of neonatal rat ventricular myocytes (NRVCs) were prepared and incubated in Dulbecco's modified Eagle's medium (DMEM) supplemented with 7% Fetal Calf Serum (FCS)^42. Eighteen to 24 hours after preparation, cells were transfected with adenoviral vector at a multiplicity of infection (MOI) of 50 in DMEM without serum for 16 hours and incubated in DMEM without serum for more than 12 hours. Hypoxic conditions were generated using a GasPak system (Becton Dickinson) as described previously. For hypoxia/reoxygenation studies, cells were exposed 12 hr hypoxia followed by 24 hr reoxygenation.
# Detection of nucleosome fragmentation by ELISA. Nucleosome fragmentation was assessed by ELISA using Cell Death Detection kit (Roche) according to the manufacture's protocol. Cardiac myocytes were seeded in 96-well plates, transfected with adenoviral vector and exposed to H/R. In one assay, 8 wells are used for one group and assays are repeated three times. The extent of nucleosome fragmentation of each group was expressed as relative value in comparison with the value of control group (Ad-βgal transfected cells without H/R).
# [2] = tested on: neonatal rat ventricular myocytes (NRVMs); test: TUNEL staining of NRVMs after hypoxia/reoxygenation (H/R); format: cell-based; conditions: inhibitor 10 μmol/L, 3 hours prior to H/R; P<0.05
# Method: as §1
# TUNEL staining. TUNEL staining for cultured cardiac myocytes was performed using the In Situ Cell Death detection kit (Roche) as described previously^2 with some modifications. In brief, cells are fixed by 4% paraformaldehyde in PBS, permeabilized with 0.1% Triton X-100 and incubated with anti-sarcomeric actinin antibody for 60 min followed by incubation with Cy3-conjugated anti-mouse IgG antibody. Cells were then incubated with TUNEL staining solution for 1 hr according to the manufacture's protocol. DAPI was used for nuclear staining. […] TUNEL positive myocytes were counted in randomly selected three fields of the slide and the experiments were repeated three times in duplicates.
structure (smiles),measurement,setting,value
N#CC(=C(/N)Sc1ccccc1N)/C(C#N)=C(\N)Sc1ccccc1N [U0126],inhibitory effect of Fstl1 on nucleosome fragmentation after treatment with inhibitor,[1],significantly attenuated
same,protective action of Ad-Fstl1 on TUNEL positive cells after pre-incubation with inhibitor,[2],partially attenuated
